Test results published in PubChem BioAssay AID1918935 (Molecular Pharmacology Branch, DTP, NCI, 2023).
Several values for one entry are separate records, joined by “and”; a condition that tells them apart may be missing. Equal entries are not always repeated. Values belong to the molecule of their own block, whether it stands above or below them.

System: 324938-238-R-J1-PDC complex spheroid viability
Test: Anticancer human tumor 324938-238-R-J1-PDC patient-derived bladder carcinoma cell line growth inhibition
Conditions: for viability, T/C: stronger effect = lower value
In short: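 Multicellular complex spheroids of tumor cells with human endothelial cells (HUVEC) and mesenchymal stem cells; the LSD1 inhibitor iadademstat was combined with standard-of-care or investigational agents. Top concentration at or near clinical Cmax, half-log dilutions; final DMSO ≤0.25%.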
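Further: spheroids also contain HUVEC and human MSCs and agents combined with iadademstat; spheroids exposed to agents for 7 days before readout.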

IC50 (curve of compound): 51.4 nM and 31.1 nM
SMILES: CC1COCCN1c1cc(-c2ccnn2C)c2ccnc(-c3ccn[nH]3)c2n1 (configuration not stated)
viability, T/C (compound 0.00316 µM): 101% | viability, T/C (compound 0.01 µM): 103% and 83.1% | viability, T/C (compound 0.0316 µM): 60.4% and 48.2% | viability, T/C (compound 0.1 µM): 33.5% and 25.6% | viability, T/C (compound 0.316 µM): 18.6% and 14.7% | viability, T/C (compound 1 µM): 13.1% and 10.3%

IC50 (curve of compound): > 100 nM
SMILES: Cn1ncnc1C1c2n[nH]c(=O)c3cc(F)cc(c23)NC1c1ccc(F)cc1 (configuration not stated)
viability, T/C (compound 0.000316 µM): 99.3% and 106% | viability, T/C (compound 0.001 µM): 102% and 99.5% | viability, T/C (compound 0.00316 µM): 99.7% and 90.2% | viability, T/C (compound 0.01 µM): 92.3% and 94.8% | viability, T/C (compound 0.0316 µM): 82.6% and 76% | viability, T/C (compound 0.1 µM): 68.6% and 58.2%

IC50 (curve of compound): 2.23 nM and 2 nM
SMILES: CC[C@@]1(O)C(=O)OCc2c1cc1n(c2=O)Cc2cc3c(CN(C)C)c(O)ccc3nc2-1
viability, T/C (compound 0.000316 µM): 101% and 94.5% | viability, T/C (compound 0.001 µM): 93% and 83.5% | viability, T/C (compound 0.00316 µM): 31.2% and 27.9% | viability, T/C (compound 0.01 µM): 8.43% and 7.17% | viability, T/C (compound 0.0316 µM): 8.29% and 8.05% | viability, T/C (compound 0.1 µM): 8.03% and 7.71%

SMILES: CC(C)CC(NC(=O)CNC(=O)c1cc(Cl)ccc1Cl)B1OC(=O)CC(CC(=O)O)(C(=O)O)O1 (configuration not stated) + NC1CC1c1ccc(-c2cccc(O)c2)cc1
IC50 (curve of first compound, second compound 0.1 µM): 1.65 nM | IC50 (curve of first compound, second compound 0.316 µM): 1.39 nM | IC50 (curve of first compound, second compound 1 µM): 1.39 nM | IC50 (curve of first compound, second compound 3.16 µM): 1.36 nM | IC50 (curve of first compound, second compound 10 µM): 1.18 nM | viability, T/C (second compound 0.1 µM, first compound 0.000316 µM): 94.4% | viability, T/C (second compound 0.1 µM, first compound 0.001 µM): 68.7% | viability, T/C (second compound 0.1 µM, first compound 0.00316 µM): 25.7% | viability, T/C (second compound 0.1 µM, first compound 0.01 µM): 5.88% | viability, T/C (second compound 0.1 µM, first compound 0.0316 µM): 3.13% | viability, T/C (second compound 0.1 µM, first compound 0.1 µM): 0.16% | viability, T/C (second compound 0.316 µM, first compound 0.000316 µM): 73% | viability, T/C (second compound 0.316 µM, first compound 0.001 µM): 59.3% | viability, T/C (second compound 0.316 µM, first compound 0.00316 µM): 26.3% | viability, T/C (second compound 0.316 µM, first compound 0.01 µM): 4.54% | viability, T/C (second compound 0.316 µM, first compound 0.0316 µM): 0.95% | viability, T/C (second compound 0.316 µM, first compound 0.1 µM): 0.15% | viability, T/C (second compound 1 µM, first compound 0.000316 µM): 78.3% | viability, T/C (second compound 1 µM, first compound 0.001 µM): 61.5% | viability, T/C (second compound 1 µM, first compound 0.00316 µM): 21.6% | viability, T/C (second compound 1 µM, first compound 0.01 µM): 4.36% | viability, T/C (second compound 1 µM, first compound 0.0316 µM): 0.4% | viability, T/C (second compound 1 µM, first compound 0.1 µM): 1.08% | viability, T/C (second compound 3.16 µM, first compound 0.000316 µM): 77.5% | viability, T/C (second compound 3.16 µM, first compound 0.001 µM): 58.5% | viability, T/C (second compound 3.16 µM, first compound 0.00316 µM): 26.3% | viability, T/C (second compound 3.16 µM, first compound 0.01 µM): 5.45% | viability, T/C (second compound 3.16 µM, first compound 0.0316 µM): 0.71% | viability, T/C (second compound 3.16 µM, first compound 0.1 µM): 1.92% | viability, T/C (second compound 10 µM, first compound 0.000316 µM): 67.7% | viability, T/C (second compound 10 µM, first compound 0.001 µM): 54.7% | viability, T/C (second compound 10 µM, first compound 0.00316 µM): 20.6% | viability, T/C (second compound 10 µM, first compound 0.01 µM): 2.92% | viability, T/C (second compound 10 µM, first compound 0.0316 µM): 0.54% | viability, T/C (second compound 10 µM, first compound 0.1 µM): 0.22%

IC50 (curve of compound): 3240 nM and 2340 nM
SMILES: COc1ccc([C@@H](O)c2cc(-c3ncnc4cc(N5CCOCC5)ccc34)c(F)cc2Cl)nn1
viability, T/C (compound 0.0316 µM): 102% | viability, T/C (compound 0.1 µM): 95.8% and 99.8% | viability, T/C (compound 0.316 µM): 86.6% and 81.7% | viability, T/C (compound 1 µM): 69.1% and 64.7% | viability, T/C (compound 3.16 µM): 50.8% and 45.9% | viability, T/C (compound 10 µM): 32.3% and 27.2%

IC50 (curve of compound): 326 nM and 256 nM
SMILES: NS(=O)(=O)OCC1CC(n2ccc3c(NC4CCc5ccccc54)ncnc32)CC1O (configuration not stated)
viability, T/C (compound 0.00949 µM): 103% and 106% | viability, T/C (compound 0.03 µM): 106% and 112% | viability, T/C (compound 0.0949 µM): 93.4% and 94% | viability, T/C (compound 0.3 µM): 54.2% and 43.8% | viability, T/C (compound 0.949 µM): 12.5% and 10.2% | viability, T/C (compound 3 µM): 15.6% and 11.9%

IC50 (curve of compound): > 3000 nM
SMILES: CCN(c1cc(-c2ccc(CN3CCOCC3)cc2)cc(C(=O)NCc2c(C)cc(C)[nH]c2=O)c1C)C1CCOCC1
viability, T/C (compound 0.00949 µM): 100% and 111% | viability, T/C (compound 0.03 µM): 105% | viability, T/C (compound 0.0949 µM): 96.9% and 101% | viability, T/C (compound 0.3 µM): 96.7% and 97.5% | viability, T/C (compound 0.949 µM): 94.5% and 98.9% | viability, T/C (compound 3 µM): 91.2% and 99%
